According to patent publication US20260364079A1 (Principia Biopharma Inc., priority 2022, published 2026):

Assay: phase 1/2 study in relapsed/refractory ITP (NCT03395210), safety
Conditions: for Abdominal discomfort / Abdominal distension / Abdominal pain / Abnormal dreams / Akathisia / Alopecia / Anemia / Any TEAE / Arthralgia / Arthropod bite / Back pain / Conjunctival hemorrhage / Contusion / Costochondritis / Cough / Decreased appetite / Defecation urgency / Diarrhea / Dizziness / Dyspepsia / Dyspnea / Dyspnea exertional / Edema / Epigastric discomfort / Epistaxis / Erysipelas / Fatigue / Frequent bowel movements / Gingival bleeding / Headache / Heavy menstrual bleeding / Hypoesthesia / Hypophosphatemia / I lot flush / Ilypokalemia / Increased white blood cell count / Maculo-papular rash / Malaise / Micturition urgency / Muscle spasms / Myalgia / Nasal congestion / Nasopharyngitis / Nausea / Peripheral swelling / Petechiae / Pruritus / Purpura / Rash / Thrombocytopena / Upper abdominal pain / Upper respiratory tract infection / Urinary tract infection / Vomiting: TEAE any cause
Excerpt: The Safety Population was used for all safety analyses.
Pre-existing conditions that worsened during a study were reported as AEs.
Safety was graded per NCI CTCAE, version 4.0.

[1] = 45 patients initiating 400 mg bid
[2] = any cause, unrelated to rilzabrutinib treatment, patients
[3] = baseline through end of treatment

CC(C)(C=C(C#N)C(=O)N1CCC[C@@H](n2nc(-c3ccc(Oc4ccccc4)cc3F)c3c(N)ncnc32)C1)N1CCN(C2COC2)CC1 (mixture of isomers) [rilzabrutinib, (R)-2-[3-[4-amino-3-(2-fluoro-4-phenoxy-phenyl)pyrazolo[3,4-d]pyrimidin-1-yl]piperidine-1-carbonyl]-4-methyl-4-[4-(oxetan-3-yl)piperazin-1-yl]pent-2-enenitrile]
Rescue medication use (200 mg qd): 1 patient
Rescue medication use (300 mg bid, patients): 1
Rescue medication use (400 mg bid, patients): 5
dose reductions/interruptions due to adverse events [1]: no dose reductions/interruptions due to adverse events
dose-limiting toxicities [1]: no dose-limiting toxicities
tolerability (ITP patients): well-tolerated
treatment-related bleeding or thrombotic events (ITP patients): no reported treatment-related bleeding or thrombotic events
Abdominal discomfort (any grade): 1 (2) number of patients (percent)
Abdominal distension (any grade): 6 (10) number of patients (percent)
Abdominal pain (any grade): 3 (5) number of patients (percent)
Abnormal dreams (any grade): 1 (2) number of patients (percent)
Akathisia (any grade): 1 (2) number of patients (percent)
Alopecia (any grade): 2 (3) number of patients (percent)
Anemia (any grade): 4 (7) number of patients (percent)
Any TEAE (any grade): 48 (80) number of patients (percent)
Arthralgia (any grade): 5 (8) number of patients (percent)
Arthropod bite (any grade): 3 (5) number of patients (percent)
Back pain (any grade): 8 (13) number of patients (percent)
Conjunctival hemorrhage (any grade): 5 (8) number of patients (percent)
Contusion (any grade): 11 (18) number of patients (percent)
Costochondritis (any grade): 2 (3) number of patients (percent)
Cough (any grade): 2 (3) number of patients (percent)
Decreased appetite (any grade): 1 (2) number of patients (percent)
Defecation urgency (any grade): 1 (2) number of patients (percent)
Diarrhea (any grade): 22 (37) number of patients (percent)
Dizziness (any grade): 2 (3) number of patients (percent)
Dyspepsia (any grade): 4 (7) number of patients (percent)
Dyspnea (any grade): 2 (3) number of patients (percent)
Dyspnea exertional (any grade): 2 (3) number of patients (percent)
Edema (any grade): 2 (3) number of patients (percent)
Epigastric discomfort (any grade): 1 (2) number of patients (percent)
Epistaxis (any grade): 2 (3) number of patients (percent)
Erysipelas (any grade): 1 (2) number of patients (percent)
Fatigue (any grade): 12 (20) number of patients (percent)
Frequent bowel movements (any grade): 1 (2) number of patients (percent)
Gingival bleeding (any grade): 3 (5) number of patients (percent)
Headache (any grade): 7 (12) number of patients (percent)
Heavy menstrual bleeding (any grade): 2 (3) number of patients (percent)
Hypoesthesia (any grade): 1 (2) number of patients (percent)
Hypophosphatemia (any grade): 2 (3) number of patients (percent)
I lot flush (any grade): 1 (2) number of patients (percent)
Ilypokalemia (any grade): 1 (2) number of patients (percent)
Increased white blood cell count (any grade): 1 (2) number of patients (percent)
Maculo-papular rash (any grade): 1 (2) number of patients (percent)
Malaise (any grade): 1 (2) number of patients (percent)
Micturition urgency (any grade): 1 (2) number of patients (percent)
Muscle spasms (any grade): 2 (3) number of patients (percent)
Myalgia (any grade): 1 (2) number of patients (percent)
Nasal congestion (any grade): 2 (3) number of patients (percent)
Nasopharyngitis (any grade): 3 (5) number of patients (percent)
Nausea (any grade): 21 (35) number of patients (percent)
Peripheral swelling (any grade): 3 (5) number of patients (percent)
Petechiae (any grade): 4 (7) number of patients (percent)
Pruritus (any grade): 2 (3) number of patients (percent)
Purpura (any grade): 2 (3) number of patients (percent)
Rash (any grade): 3 (5) number of patients (percent)
Thrombocytopena (any grade): 2 (3) number of patients (percent)
Upper abdominal pain (any grade): 3 (5) number of patients (percent)
Upper respiratory tract infection (any grade): 3 (5) number of patients (percent)
Urinary tract infection (any grade): 2 (3) number of patients (percent)
Vomiting (any grade): 4 (7) number of patients (percent)
Abdominal discomfort (grade 1): 1 (2) number of patients (percent)
Abdominal distension (grade 1): 6 (10) number of patients (percent)
Abdominal pain (grade 1): 1 (2) number of patients (percent)
Abnormal dreams (grade 1): 1 (2) number of patients (percent)
Akathisia (grade 1): 1 (2) number of patients (percent)
Alopecia (grade 1): 2 (3) number of patients (percent)
Anemia (grade 1): — (represents zero events)
Any TEAE (grade 1): 43 (72) number of patients (percent)
Arthralgia (grade 1): 3 (5) number of patients (percent)
Arthropod bite (grade 1): 3 (5) number of patients (percent)
Back pain (grade 1): 7 (12) number of patients (percent)
Conjunctival hemorrhage (grade 1): 5 (8) number of patients (percent)
Contusion (grade 1): 7 (12) number of patients (percent)
Costochondritis (grade 1): 2 (3) number of patients (percent)
Cough (grade 1): 2 (3) number of patients (percent)
Decreased appetite (grade 1): 1 (2) number of patients (percent)
Defecation urgency (grade 1): — (represents zero events)
Diarrhea (grade 1): 19 (32) number of patients (percent)
Dizziness (grade 1): 2 (3) number of patients (percent)
Dyspepsia (grade 1): 3 (5) number of patients (percent)
Dyspnea (grade 1): 2 (3) number of patients (percent)
Dyspnea exertional (grade 1): 2 (3) number of patients (percent)
Edema (grade 1): 2 (3) number of patients (percent)
Epigastric discomfort (grade 1): — (represents zero events)
Epistaxis (grade 1): 2 (3) number of patients (percent)
Erysipelas (grade 1): — (represents zero events)
Fatigue (grade 1): 10 (17) number of patients (percent)
Frequent bowel movements (grade 1): — (represents zero events)
Gingival bleeding (grade 1): 3 (5) number of patients (percent)
Headache (grade 1): 7 (12) number of patients (percent)
Heavy menstrual bleeding (grade 1): 1 (2) number of patients (percent)
Hypoesthesia (grade 1): — (represents zero events)
Hypophosphatemia (grade 1): — (represents zero events)
I lot flush (grade 1): — (represents zero events)
Ilypokalemia (grade 1): 1 (2) number of patients (percent)
Increased white blood cell count (grade 1): — (represents zero events)
Maculo-papular rash (grade 1): 1 (2) number of patients (percent)
Malaise (grade 1): 1 (2) number of patients (percent)
Micturition urgency (grade 1): 1 (2) number of patients (percent)
Muscle spasms (grade 1): 2 (3) number of patients (percent)
Myalgia (grade 1): 1 (2) number of patients (percent)
Nasal congestion (grade 1): 1 (2) number of patients (percent)
Nasopharyngitis (grade 1): 2 (3) number of patients (percent)
Nausea (grade 1): 18 (30) number of patients (percent)
Peripheral swelling (grade 1): 3 (5) number of patients (percent)
Petechiae (grade 1): 4 (7) number of patients (percent)
Pruritus (grade 1): 1 (2) number of patients (percent)
Purpura (grade 1): 2 (3) number of patients (percent)
Rash (grade 1): 1 (2) number of patients (percent)
Thrombocytopena (grade 1): — (represents zero events)
Upper abdominal pain (grade 1): 2 (3) number of patients (percent)
Upper respiratory tract infection (grade 1): 2 (3) number of patients (percent)
Urinary tract infection (grade 1): 1 (2) number of patients (percent)
Vomiting (grade 1): 3 (5) number of patients (percent)
Abdominal discomfort (grade 2): — (represents zero events)
Abdominal distension (grade 2): — (represents zero events)
Abdominal pain (grade 2): 2 (3) number of patients (percent)
Abnormal dreams (grade 2): — (represents zero events)
Akathisia (grade 2): — (represents zero events)
Alopecia (grade 2): — (represents zero events)
Anemia (grade 2): 2 (3) number of patients (percent)
Any TEAE (grade 2): 30 (50) number of patients (percent)
Arthralgia (grade 2): 2 (3) number of patients (percent)
Arthropod bite (grade 2): — (represents zero events)
Back pain (grade 2): 1 (2) number of patients (percent)
Conjunctival hemorrhage (grade 2): — (represents zero events)
Contusion (grade 2): 3 (5) number of patients (percent)
Costochondritis (grade 2): — (represents zero events)
Cough (grade 2): — (represents zero events)
Decreased appetite (grade 2): — (represents zero events)
Defecation urgency (grade 2): 1 (2) number of patients (percent)
Diarrhea (grade 2): 3 (5) number of patients (percent)
Dizziness (grade 2): — (represents zero events)
Dyspepsia (grade 2): 1 (2) number of patients (percent)
Dyspnea (grade 2): — (represents zero events)
Dyspnea exertional (grade 2): — (represents zero events)
Edema (grade 2): — (represents zero events)
Epigastric discomfort (grade 2): 1 (2) number of patients (percent)
Epistaxis (grade 2): — (represents zero events)
Erysipelas (grade 2): 1 (2) number of patients (percent)
Fatigue (grade 2): 2 (3) number of patients (percent)
Frequent bowel movements (grade 2): 1 (2) number of patients (percent)
Headache (grade 2): — (represents zero events)
Heavy menstrual bleeding (grade 2): 1 (2) number of patients (percent)
Hypoesthesia (grade 2): 1 (2) number of patients (percent)
Hypophosphatemia (grade 2): 2 (3) number of patients (percent)
I lot flush (grade 2): 1 (2) number of patients (percent)
Ilypokalemia (grade 2): — (represents zero events)
Increased white blood cell count (grade 2): 1 (2) number of patients (percent)
Maculo-papular rash (grade 2): — (represents zero events)
Malaise (grade 2): — (represents zero events)
Micturition urgency (grade 2): — (represents zero events)
Muscle spasms (grade 2): — (represents zero events)
Myalgia (grade 2): — (represents zero events)
Nasal congestion (grade 2): 1 (2) number of patients (percent)
Nasopharyngitis (grade 2): 1 (2) number of patients (percent)
Nausea (grade 2): 3 (5) number of patients (percent)
Peripheral swelling (grade 2): — (represents zero events)
Petechiae (grade 2): — (represents zero events)
Pruritus (grade 2): 1 (2) number of patients (percent)
Purpura (grade 2): — (represents zero events)
Rash (grade 2): 2 (3) number of patients (percent)
Thrombocytopena (grade 2): — (represents zero events)
Upper abdominal pain (grade 2): 1 (2) number of patients (percent)
Upper respiratory tract infection (grade 2): 1 (2) number of patients (percent)
Urinary tract infection (grade 2): 1 (2) number of patients (percent)
Vomiting (grade 2): 1 (2) number of patients (percent)
Abdominal discomfort (grade 3/4): — (represents zero events)
Abdominal distension (grade 3/4): — (represents zero events)
Abdominal pain (grade 3/4): — (represents zero events)
Abnormal dreams (grade 3/4): — (represents zero events)
Akathisia (grade 3/4): — (represents zero events)
Alopecia (grade 3/4): — (represents zero events)
Anemia (grade 3/4): 2 (3) number of patients (percent)
Arthralgia (grade 3/4): — (represents zero events)
Arthropod bite (grade 3/4): — (represents zero events)
Back pain (grade 3/4): — (represents zero events)
Conjunctival hemorrhage (grade 3/4): — (represents zero events)
Contusion (grade 3/4): 1 (2) number of patients (percent)
Costochondritis (grade 3/4): — (represents zero events)
Cough (grade 3/4): — (represents zero events)
Decreased appetite (grade 3/4): — (represents zero events)
Defecation urgency (grade 3/4): — (represents zero events)
Diarrhea (grade 3/4): — (represents zero events)
Dizziness (grade 3/4): — (represents zero events)
Dyspepsia (grade 3/4): — (represents zero events)
Dyspnea (grade 3/4): — (represents zero events)
Dyspnea exertional (grade 3/4): — (represents zero events)
Edema (grade 3/4): — (represents zero events)
Epigastric discomfort (grade 3/4): — (represents zero events)
Epistaxis (grade 3/4): — (represents zero events)
Erysipelas (grade 3/4): — (represents zero events)
Fatigue (grade 3/4): — (represents zero events)
Frequent bowel movements (grade 3/4): — (represents zero events)
Headache (grade 3/4): — (represents zero events)
Heavy menstrual bleeding (grade 3/4): — (represents zero events)
Hypoesthesia (grade 3/4): — (represents zero events)
Hypophosphatemia (grade 3/4): — (represents zero events)
I lot flush (grade 3/4): — (represents zero events)
Ilypokalemia (grade 3/4): — (represents zero events)
Increased white blood cell count (grade 3/4): — (represents zero events)
Maculo-papular rash (grade 3/4): — (represents zero events)
Malaise (grade 3/4): — (represents zero events)
Micturition urgency (grade 3/4): — (represents zero events)
Muscle spasms (grade 3/4): — (represents zero events)
Myalgia (grade 3/4): — (represents zero events)
Nasal congestion (grade 3/4): — (represents zero events)
Nasopharyngitis (grade 3/4): — (represents zero events)
Nausea (grade 3/4): — (represents zero events)
Peripheral swelling (grade 3/4): — (represents zero events)
Petechiae (grade 3/4): — (represents zero events)
Pruritus (grade 3/4): — (represents zero events)
Purpura (grade 3/4): — (represents zero events)
Rash (grade 3/4): — (represents zero events)
Thrombocytopena (grade 3/4): 2 (3) number of patients (percent)
Upper abdominal pain (grade 3/4): — (represents zero events)
Upper respiratory tract infection (grade 3/4): — (represents zero events)
Urinary tract infection (grade 3/4): — (represents zero events)
Vomiting (grade 3/4): — (represents zero events)
Rescue medication use (all patients): seven
grade 3 anemia (any cause, unrelated to rilzabrutinib treatment): 2 n
grade 3 abnormal alanine aminotransferase levels [2]: one each
grade 3 contusion [2]: one each
grade 3 gastrointestinal hemorrhage [2]: one each
grade 3 hematoma [2]: one each
grade 3 immune thrombocytopenia [2]: one each
grade 3 myelofibrosis [2]: one each
grade 3 thrombocytopenia [2]: one each
grade 4 Evans syndrome [2]: one each
grade 4 thrombocytopenia [2]: one each
≥1 treatment-related, treatment-emergent adverse event (any grade): 52%
grade 3, 4, or 5 bleeding events (IBLS Bleeding Scale) (baseline or week 24/EOS, n=34): no grade 3, 4, or 5 bleeding events
IBLS bleeding scale scores within each domain [3]: no increase in bleeding from baseline through the end of treatment
IBLS bleeding scale scores, skin and oral sites [3]: improved at skin and oral sites
